Patent US9839642B2, “Beta-tetrazolyl-propionic acids as metallo-beta-lactamase inhibitors” (priority 2014, dated 2017)

Legend:
[1] = molecular target: VIM-1 (Pseudomonas aeruginosa, UniProt A0A0F7KYQ8); assay: Enzyme activity: determination of IC50, fluorescence assay with CCF2-FA substrate; type: biochemical; conditions: enzyme 30 pM, CCF2-FA 1.25 μM, 2 hours at 25° C.; read-out: VIM1 IC50
Outline: (§1)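 Enzyme (1 pM NDM-1, 2 pM IMP-1, 30 pM VIM-1) incubated with inhibitor (20 to 0.00063 μM) and 1.25 μM CCF2-FA in 100 mM KH2PO4 pH 7, 0.005% Tween-20, 10 μM ZnSO4, 2 h at 25 °C. Fluorescence read at 460 nm (ex 405 nm); IC50 by 4-parameter fit.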

[2] = molecular target: IMP-1 (Serratia marcescens, UniProt P52699); assay: as above; type: biochemical; conditions: enzyme 2 pM, CCF2-FA 1.25 μM, 2 hours at 25° C.; read-out: IMP1 IC50
IMP-1, sequence (P52699 19-246, looked up, species assumed): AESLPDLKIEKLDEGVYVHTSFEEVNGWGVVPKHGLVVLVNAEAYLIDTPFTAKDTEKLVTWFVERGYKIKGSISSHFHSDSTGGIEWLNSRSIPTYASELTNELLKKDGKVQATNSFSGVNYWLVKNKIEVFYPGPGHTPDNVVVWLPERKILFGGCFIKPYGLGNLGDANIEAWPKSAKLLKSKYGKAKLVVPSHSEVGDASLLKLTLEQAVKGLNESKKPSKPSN
Outline: as §1

[3] = molecular target: NDM-1 (Klebsiella pneumoniae, UniProt C7C422); assay: as above; type: biochemical; conditions: enzyme 1 pM, CCF2-FA 1.25 μM, 2 hours at 25° C.; read-out: NDM1 IC50
NDM-1, sequence (C7C422 29-270, looked up, species assumed): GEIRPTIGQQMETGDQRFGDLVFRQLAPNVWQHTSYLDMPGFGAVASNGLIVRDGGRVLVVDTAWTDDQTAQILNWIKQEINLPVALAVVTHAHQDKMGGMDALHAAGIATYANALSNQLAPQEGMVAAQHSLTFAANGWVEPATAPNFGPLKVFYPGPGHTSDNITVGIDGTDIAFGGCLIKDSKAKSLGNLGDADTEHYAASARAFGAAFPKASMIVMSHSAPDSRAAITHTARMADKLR
Outline: as §1

[4] = test system: Serratia marcescens expressing IMP-1 (CL5741); assay: Antibiotic potentiation activity: synergistic concentration (MITC95) with imipenem, growth by OD600; type: cell-based; conditions: 95% inhibition of bacterial growth, strain CL5741
Outline: (§2)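 Strains grown overnight at 35° C, resuspended in saline, diluted 1:100 into 1.1×CAMHB; imipenem at 1 μg/ml or 4 μg/ml with test compound 200 μM to 0.195 μM. Incubated 22 hours to 24 hours at 35° C, OD600 read; MITC95 is lowest compound concentration inhibiting 95% of growth.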

[5] = test system: Escherichia coli expressing NDM-1 (CLB30016); assay: as above; type: cell-based; conditions: 95% inhibition of bacterial growth, strain CLB30016
Outline: as §2

[6] = test system: Klebsiella pneumoniae expressing VIM-1 (IHMA599644); assay: as above; type: cell-based; conditions: 95% inhibition of bacterial growth, strain IHMA599644
Outline: as §2

O=C(O)[C@@H](C1CCCC1)[C@H](Cc1ccc(C2CCNC2)cc1)c1nnn[nH]1 (stereo partly drawn) [Example 79, 3-(4-((2S,3S)-3-carboxy-3-cyclopentyl-2-(1H-tetrazol-5-yl)propyl)phenyl)pyrrolidin-1-ium]
IC50 [1]: 2.3 nM
IC50 [2]: 190 nM
IC50 [3]: 24 nM
IMP1 SM5741 MITC95 [4]: 4.7 µM
NDM1 EC30016 MITC95 [5]: 3.1 µM
VIM1 KP599644 MITC95 [6]: 6.2 µM

O=C(O)[C@@H](C1CCCC1)[C@H](Cc1ccc(C2CCNCC2)cc1)c1nnn[nH]1 [Example 80, 4-(4-((2S,3S)-3-carboxy-3-cyclopentyl-2-(1H-tetrazol-5-yl)propyl)phenyl)piperidine]
IC50 [1]: 2.2 nM
IC50 [2]: 73 nM
IC50 [3]: 17 nM
IMP1 SM5741 MITC95 [4]: 1.6 µM
NDM1 EC30016 MITC95 [5]: 6.2 µM
VIM1 KP599644 MITC95 [6]: 9.4 µM

CC[C@H](C)[C@H](C(=O)O)[C@H](Cc1ccc(C2CCNC2)cc1)c1nnn[nH]1 (stereo partly drawn) [Example 81, (2S,3S)-3-methyl-2-((1S)-2-(4-(pyrrolidin-3-yl)phenyl)-1-(1H-tetrazol-5-yl)ethyl)pentanoic acid]
IC50 [1]: 4.4 nM
IC50 [2]: 65 nM
IC50 [3]: 46 nM
IMP1 SM5741 MITC95 [4]: 2.3 µM
NDM1 EC30016 MITC95 [5]: 2.3 µM
VIM1 KP599644 MITC95 [6]: 6.2 µM

CCC[C@H](C(=O)O)[C@H](Cc1ccc(C#N)cn1)c1nnn[nH]1 [Example 84, (2S)-2-[(1S)-2-(5-cyanopyridin-2-yl)-1-(1H-tetrazol-5-yl)ethyl]pentanoic acid]
IC50 [1]: 47 nM
IC50 [2]: > 20000 nM
IC50 [3]: 1200 nM
IMP1 SM5741 MITC95 [4]: >200 µM
NDM1 EC30016 MITC95 [5]: 18.8 µM
VIM1 KP599644 MITC95 [6]: 50 µM

CCC[C@H](C(=O)O)[C@H](Cc1ccc(C)nc1)c1nnn[nH]1 [Example 85, (2S)-2-[(1S)-2-(6-methylpyridin-3-yl)-1-(1H-tetrazol-5-yl)ethyl]pentanoic acid]
IC50 [1]: 6.2 nM
IC50 [2]: 6500 nM
IC50 [3]: 250 nM
IMP1 SM5741 MITC95 [4]: 100 µM
NDM1 EC30016 MITC95 [5]: 0.78 µM
VIM1 KP599644 MITC95 [6]: 18.8 µM

CCC[C@H](C(=O)O)[C@H](Cc1ccc(S(=O)(=O)C2CC2)nc1)c1nnn[nH]1 [Example 86, (2S)-2-[(1S)-2-[6-(cyclopropylsulfonyl)pyridin-3-yl]-1-(1H-tetrazol-5-yl)ethyl]pentanoic acid]
IC50 [1]: 11 nM
IC50 [2]: 3300 nM
IC50 [3]: 130 nM
IMP1 SM5741 MITC95 [4]: 125 µM
NDM1 EC30016 MITC95 [5]: 50 µM
VIM1 KP599644 MITC95 [6]: 100 µM

CCC[C@H](C(=O)O)[C@H](Cc1cccnc1Cl)c1nnn[nH]1 [Example 87, (2S)-2-[(1S)-2-(2-chloropyridin-3-yl)-1-(1H-tetrazol-5-yl)ethyl]pentanoic acid]
IC50 [1]: 2.3 nM
IC50 [2]: 6600 nM
IC50 [3]: 300 nM
IMP1 SM5741 MITC95 [4]: >200 µM
NDM1 EC30016 MITC95 [5]: 12.5 µM
VIM1 KP599644 MITC95 [6]: 25 µM

CCC[C@H](C(=O)O)[C@H](Cc1ccncc1)c1nnn[nH]1 [Example 88, (2S)-2-[(1S)-2-pyridin-4-yl-1-(1H-tetrazol-5-yl)ethyl]pentanoic acid]
IC50 [1]: 5.6 nM
IC50 [2]: 2000 nM
IC50 [3]: 180 nM
IMP1 SM5741 MITC95 [4]: 37.5 µM
NDM1 EC30016 MITC95 [5]: 0.78 µM
VIM1 KP599644 MITC95 [6]: 6.2 µM

CC(C)[C@H](C(=O)O)[C@H](CC1CCNCC1)c1nnn[nH]1 [Example 89, (2S,3S)-2-isopropyl-4-(piperidin-4-yl)-3-(1H-tetrazol-5-yl)butanoic acid]
IC50 [1]: 2100 nM
IC50 [2]: > 20000 nM
IC50 [3]: 18000 nM
IMP1 SM5741 MITC95 [4]: >200 µM
NDM1 EC30016 MITC95 [5]: 18.8 µM
VIM1 KP599644 MITC95 [6]: 37.5 µM

CC(=O)N1CCC(C[C@H](c2nnn[nH]2)[C@@H](C(=O)O)C(C)C)CC1 [Example 90, (2S,3S)-4-(1-acetylpiperidin-4-yl)-2-isopropyl-3-(1H-tetrazol-5-yl)butanoic acid]
IC50 [1]: 310 nM
IC50 [2]: 14000 nM
IC50 [3]: 200 nM
IMP1 SM5741 MITC95 [4]: >200 µM
NDM1 EC30016 MITC95 [5]: 62 µM
VIM1 KP599644 MITC95 [6]: 200 µM

CC(C)[C@H](C(=O)O)[C@H](Cc1ccc(Br)nc1)c1nnn[nH]1 [Example 91, (2S,3S)-4-(6-bromopyridin-3-yl)-2-isopropyl-3-(1H-tetrazol-5-yl)butanoic acid]
IC50 [1]: 7.9 nM
IC50 [2]: 2200 nM
IC50 [3]: 32 nM
IMP1 SM5741 MITC95 [4]: 50 µM
NDM1 EC30016 MITC95 [5]: 7.8 µM
VIM1 KP599644 MITC95 [6]: 12.5 µM
